Measured values from patent US10391081B2, “FGFR gatekeeper mutant gene and drug targeting same” (CHUGAI SEIYAKU KABUSHIKI KAISHA, priority 2013, dated 2019).

Target: T1, TEL-fused FGFR2 V564F mutant polypeptide (Homo sapiens, UniProt P21802, V564F)
T1 construct: expressed in transfected cells; for A6/A7 grown as subcutaneous tumours in BALB/c nude mice
Test: In vitro cell proliferation inhibition (WST-8), Ba/F3 strain stably expressing TEL-fused FGFR2 V564F mutant
Assay type: cell-based
Conditions: cultured four days, FIG. 3
Excerpt: A polynucleotide encoding the dimerization domain of wild-type TEL (SEQ ID NO: 33) and a polynucleotide encoding the intracellular domain of wild-type FGFR2 (SEQ ID NO: 1) were fused by a PCR-based site-directed mutagenesis method to produce a polynucleotide (SEQ ID NO: 11) encoding the TEL-fused wild-type FGFR2 (SEQ ID NO: 34). Using the polynucleotide encoding the TEL-fused wild-type FGFR2 as a template, a polynucleotide (SEQ ID NO: 12) encoding the TEL-fused FGFR2 V564F mutant (SEQ ID NO: 35) was prepared by a PCR-based site-directed mutagenesis method.

T1 sequence (P21802 with tags, fused parts or gaps V564F): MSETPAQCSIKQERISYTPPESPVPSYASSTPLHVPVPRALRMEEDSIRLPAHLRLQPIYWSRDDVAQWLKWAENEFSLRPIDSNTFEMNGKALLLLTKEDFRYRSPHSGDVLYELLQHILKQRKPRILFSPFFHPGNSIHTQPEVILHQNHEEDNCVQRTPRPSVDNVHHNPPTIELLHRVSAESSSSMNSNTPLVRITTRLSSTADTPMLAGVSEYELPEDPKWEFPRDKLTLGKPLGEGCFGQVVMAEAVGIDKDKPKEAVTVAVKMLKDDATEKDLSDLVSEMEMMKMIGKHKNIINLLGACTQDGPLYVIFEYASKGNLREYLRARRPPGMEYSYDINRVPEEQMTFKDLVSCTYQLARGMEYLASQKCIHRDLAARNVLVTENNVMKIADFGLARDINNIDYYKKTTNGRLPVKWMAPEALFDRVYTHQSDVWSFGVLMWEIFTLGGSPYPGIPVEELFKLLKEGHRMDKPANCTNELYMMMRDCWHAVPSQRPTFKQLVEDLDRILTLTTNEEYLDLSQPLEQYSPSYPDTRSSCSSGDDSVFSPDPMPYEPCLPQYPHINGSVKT

Compound	cell proliferation-inhibiting activity compared to the strain stably expressing TEL-fused wild-type FGFR2
CCN1CCN(c2ccc(Nc3cc(N(C)C(=O)Nc4c(Cl)c(OC)cc(OC)c4Cl)ncn3)cc2)CC1 [Compound D, BGJ-398]	greatly weakened
COc1cc2c(Oc3ccc4[nH]c(C)cc4c3F)ncnc2cc1OCCCN1CCCC1 [E, cediranib]	greatly weakened
